In paper PMC12024814, “Ruthenium(II)–Arene Complexes with a 2,2′-Bipyridine Ligand as Anti-Aβ Agents” (Biomolecules, 2025):

Tests used:
[1] = Log D7.4 (1-octanol/PBS shake method, absorbance); assay type: physicochemical; conditions: 1-octanol/PBS pH 7.4, 50 μM, 2 h mixing at room temperature
Experimental: A stock solution was prepared from each Ru complex using dimethyl sulfoxide (DMSO), then diluted to 6 mL and a concentration of 50 μM using phosphate-buffered saline (PBS, pH 7.4), where the final DMSO concentration was less than 5%. The absorbance spectra were measured, then 6 mL of 1-octanol was added, and the resulting biphasic sample was mixed at room temperature for 2 h using an IKA Trayster inversion mixer (60 rpm). Following this, the aqueous layer was extracted, and its absorbance spectra were measured. Log D values were determined using the equation below: LogD7.4=logAbs @ λmax before mixing/Abs @ λmax after mixing−1
The ability of Aβ-targeting therapeutics to cross the blood–brain barrier (BBB) is essential for their success. […] For predicting passage across the BBB, one metric that is used is the n-octanol/water partition coefficient of the molecule (log P). For Ru therapeutics, pH can play an important role in the speciation and stability of the complex; therefore, the determination of log D was performed. For such an analysis, the complexes were initially dissolved in DMSO, then diluted using PBS. After initial absorption measurements, the aqueous samples were mixed with an equal volume of 1-octanol for 2 h. The short mixing time is necessary to minimize any ligand exchange that may occur (vide infra), while still providing an accurate value for the partitioning. […] To the best of our knowledge, the partitioning for these complexes has not been evaluated previously, while the values obtained are similar to previous Ru(II)–arene complexes with bidentate ligands.

C6 glioma cells = experiment: MTT cell viability assay, C6 glioma cells; assay type: cell-based, Rattus norvegicus; conditions: for cell morphology versus DMSO-treated control (confocal microscopy): 20 µM; for Ranking Cytotoxicity: scale 1 to 5 (1 = best, 5 = worst), C6 glioma cells
Experimental: Cultures of adherent Rattus norvegicus pheochromocytoma cells (PC-12; ATCC CRL-1721) and axenic Rattus norvegicus C6 glioma cells (ATTC CCL-107) were prepared as previously reported. The cells were cultured using Dulbecco’s Modified Eagle’s medium with low glucose, sodium pyruvate, and without phenol red or L-glutamine (DMEM REF:11054-020; GIBCO; Waltham, MA, USA) and supplemented with 1.5% (v/v) heat-inactivated fetal bovine serum (GIBCO; Waltham, MA, USA), 10% (v/v) sterile filtered horse serum (Sigma-Aldrich, St. Louis, MO, USA), and 4% sterile L-glutamine (Sigma-Aldrich; St. Louis, MO, USA). Medium supplemented with sera was referred to as “complete medium”, while non-supplemented medium was designated as “incomplete”.
For the viability assays, both cell types were grown to confluency before being trypsinized, resuspended in 1 mL of complete medium per confluent well of a 6-well plate, diluted ten-fold, and then counted with a Scepter 2.0 Handheld Automated Cell Counter (Millipore, Burlington, MA, USA) affixed with a 60 µm sensor. Cells were subsequently seeded (adding 100 µL per well, thus adding an average of 1.0 × 10^4 cells per well) into poly-L-lysine-coated flat-bottomed 96-wells using separate plates for each cell type. Stock solutions of the Ru complexes were prepared in DMSO, with an appropriate dilution using DMSO to the testing concentrations of 40, 20, 2, or 0.2 µM. In all cases, the final concentration of DMSO was 1% with cell incubations. Solutions of the Ru complexes or DMSO were introduced 24 h after cell plating and incubated a further 24 h unless otherwise indicated. Replicate wells (n = 4) were set up for each experimental variation. No cell controls were also set up, containing the Ru complex in DMSO additions, so that potential spectral signals could be blanked out for the spectrophotometric 3-[4,5-dimethylthiazol-2-yl]-2,5-diphenyltetrazoliumbromide (MTT) viability assay, as described below.
To assess the viability of the cells with and without Ru additions, cell viability tests were performed using an MTT assay following the procedure of Mosmann with the following variations: Before adding the MTT reagent (5 mg/mL water), 90 µL of the complete medium was removed from each well, and 90 µL of incomplete medium was added. Then, 10 µL of MTT reagent was added per well, gently mixed, and incubated at ambient temperature for one hour. The reactions were stopped by the addition of 100 µL per well of the stopping reagent (10% v/v Triton X-100, 1 mM HCl in isopropanol) to lyse the cells and dissolve the formed formazan crystals. The absorbance values were recorded using a Bio-Rad® Microplate Reader Benchmark at 595 nm. All MTT data were normalized to the DMSO controls by calculating the average percent of DMSO control with the following formula: average cell+Ru MTT−average (Ru blank MTT)/average control cell MTT−average (control blank MTT) × 100
Data were obtained from 4 replicates and reported as a percent of control cells.
A final step in the evaluation of the Ru complexes was completed using a standard MTT cell viability assay towards two neuronal cells lines. The cell lines used were glial cells, as these are the most abundant cell type within the brain [61], and chromaffin cells, which would provide an indication regarding stress response. Taken together, these would provide information regarding the overall biocompatibility of the Ru complexes.

[2] = molecular target: T1, human serum albumin (HSA) (Homo sapiens, UniProt P02768); experiment: Protein binding assay, dansyl glycine (DG) displacement, Sudlow site II; conditions: for Log K (DG), conditional binding constant to serum albumin: dansyl glycine probe, Sudlow site II, Stern–Volmer slope, HSA and DG 2.5 μM, PBS; for Ranking HSA: scale 1 to 5 (1 = best, 5 = worst), binding to HSA
T1 construct: purchased Sigma Aldrich
T1 sequence (P02768 25-609): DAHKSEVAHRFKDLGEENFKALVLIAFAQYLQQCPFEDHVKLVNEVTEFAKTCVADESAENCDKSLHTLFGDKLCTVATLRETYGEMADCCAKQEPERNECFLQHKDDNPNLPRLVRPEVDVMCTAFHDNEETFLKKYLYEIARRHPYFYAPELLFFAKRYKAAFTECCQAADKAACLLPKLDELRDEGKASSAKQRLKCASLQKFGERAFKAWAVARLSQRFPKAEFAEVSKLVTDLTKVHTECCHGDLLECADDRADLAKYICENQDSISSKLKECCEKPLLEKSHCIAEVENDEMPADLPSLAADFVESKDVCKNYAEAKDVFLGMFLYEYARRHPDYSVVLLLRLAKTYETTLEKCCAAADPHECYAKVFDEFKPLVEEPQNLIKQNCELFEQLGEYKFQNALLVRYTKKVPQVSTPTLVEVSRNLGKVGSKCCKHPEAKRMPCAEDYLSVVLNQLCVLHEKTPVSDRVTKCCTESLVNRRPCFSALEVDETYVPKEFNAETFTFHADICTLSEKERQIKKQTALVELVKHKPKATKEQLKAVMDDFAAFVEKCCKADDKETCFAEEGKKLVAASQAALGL
Experimental: A stock of human serum albumin (HSA, 100 μM) was prepared using PBS, while the probes dansyl glycine (DG) and warfarin (WF) were prepared by initially dissolving them in DMSO and diluting them with PBS until the concentration of DMSO was less than 5%. Solutions of each Ru complex were prepared by initial dissolution in DMSO and subsequent dilution using PBS until the concentration of DMSO was less than 5%. The total volume of each sample was 3.5 mL, where the concentration of HSA and DG/WF was 2.5 μM throughout the experiment. The Ru concentration ranged from 0 μM to 62.5 μM, with an increase of 12.5 μM for each sample. In total, six samples were prepared for each protein binding assay. After preparation, the samples were placed on an IKA Trayster inversion mixer (60 rpm) for 30 s and incubated at approximately 28 °C in a Neslab gp-200 for 15 min, before being placed back on the inversion mixer (60 rpm) for 30 s. All fluorescence measurements for the protein binding assay were made using a PTI QuantiMaster 50, and the samples were measured at room temperature with conditions respective to the probe.
One important consideration for a potential AD therapeutic is its interaction with serum proteins, specifically albumin (HSA). […] To determine the potential association of the prepared Ru complexes with HSA, a protein binding assay was performed. For these studies, the displacement of two fluorometric probes was used to determine the relative affinity of the Ru complexes for two of the established binding sites on HSA. The first probe, warfarin (WF), an anticoagulant, binds selectively to Sudlow site I on HSA [55], while the second probe used was dansyl glycine (DG), which selectively binds to Sudlow site II on HSA [56]. As these are the two major binding sites on the protein, the probes allow for observations of binding events that occur within these hydrophobic pockets. Individually, the probes were initially mixed with HSA, followed by increasing amounts of the respective Ru complexes, whereby the decrease in fluorescence signals from the respective probes (Figures S22–S30) was used to construct a Stern–Volmer plot, where the slope of the line represents the conditional binding constant (K’) for the respective Ru complexes to each site (Figure 8).

| Compound | Log D7.4 [1] | cell morphology versus DMSO-treated control (confocal microscopy) (C6 glioma cells; C6 cells, 24 h) | Ranking Cytotoxicity (C6 glioma cells) | Log K (DG), conditional binding constant to serum albumin [2] | Ranking HSA [2] | toxicity (MTT) (C6 glioma cells; C6 cells, 20 and 40 µM, 24 h) |
| --- | --- | --- | --- | --- | --- | --- |
| [Ru(η^6-p-cymene)(4,4′-diamino-2,2′-bipyridine)Cl]PF6 [RuBA] | −0.55 ± 0.03 | virtually indistinguishable | 1 | 4.07 | 5 |  |
| [Ru(η^6-p-cymene)(4,4′-dimethoxy-2,2′-bipyridine)Cl]PF6 [RuBMeO] | −0.74 ± 0.08 |  | 3 | 3.91 | 2 |  |
| Cc1ccc(C(C)C)cc1.Cc1ccnc(-c2cc(C)ccn2)c1.F[P-](F)(F)(F)(F)F.[Cl-].[Ru+2] [RuBMe, [Ru(η^6-p-cymene)(4,4′-dimethyl-2,2′-bipyridine)Cl]PF6] | −0.99 ± 0.13 |  | 2 | 3.99 | 4 |  |
| Cc1ccc(C(C)C)cc1.F[P-](F)(F)(F)(F)F.[Cl-].[Ru+2].c1ccc(-c2ccccn2)nc1 [RuB, [Ru(η^6-p-cymene)(2,2′-bipyridine)Cl]PF6] | −1.90 ± 0.15 |  | 4 | 3.96 | 3 |  |
| [Ru(η^6-p-cymene)(4,4′-di-tert-butyl-2,2′-bipyridine)Cl]PF6 [RuBtB] | 0.84 ± 0.03 | severely reduced in numbers and cell shapes | 5 | 3.85 | 1 | substantial toxicity |
